Results taken from ChEMBL document CHEMBL4052759, “Discovery of DS79182026: A potent orally active hepcidin production inhibitor” (Bioorg Med Chem Lett, 2017).

Tests used:
[1] = molecular target: T1, cGMP-dependent protein kinase 1 (Homo sapiens) (UniProt Q13976); assay: Inhibition of PKG1-beta (unknown origin) at 0.49 uM relative to control
T1 sequence (whole entry): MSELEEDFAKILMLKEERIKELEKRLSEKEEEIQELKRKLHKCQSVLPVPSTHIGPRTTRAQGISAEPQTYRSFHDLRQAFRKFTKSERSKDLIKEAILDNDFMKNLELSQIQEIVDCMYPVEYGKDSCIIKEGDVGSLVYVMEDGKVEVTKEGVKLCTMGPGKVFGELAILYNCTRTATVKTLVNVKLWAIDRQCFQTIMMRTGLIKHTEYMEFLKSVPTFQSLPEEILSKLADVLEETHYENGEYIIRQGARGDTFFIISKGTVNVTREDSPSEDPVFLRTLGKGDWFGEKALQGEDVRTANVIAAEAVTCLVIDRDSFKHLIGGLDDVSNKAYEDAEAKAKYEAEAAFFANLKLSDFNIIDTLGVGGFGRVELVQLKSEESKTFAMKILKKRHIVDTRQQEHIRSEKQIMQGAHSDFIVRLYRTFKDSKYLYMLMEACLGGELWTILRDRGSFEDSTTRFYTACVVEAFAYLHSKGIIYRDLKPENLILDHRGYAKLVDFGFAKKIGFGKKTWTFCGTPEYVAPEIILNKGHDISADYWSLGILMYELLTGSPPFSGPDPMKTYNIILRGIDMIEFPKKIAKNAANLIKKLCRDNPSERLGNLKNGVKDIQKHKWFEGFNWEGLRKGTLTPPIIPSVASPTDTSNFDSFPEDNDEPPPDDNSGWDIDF

[2] = molecular target: Tyrosine-protein kinase Lck (Homo sapiens) (UniProt P06239); assay: Inhibition of LCK (unknown origin) at 0.49 uM relative to control
Sequence of Tyrosine-protein kinase Lck (Homo sapiens) (P06239 2-509 limits assumed): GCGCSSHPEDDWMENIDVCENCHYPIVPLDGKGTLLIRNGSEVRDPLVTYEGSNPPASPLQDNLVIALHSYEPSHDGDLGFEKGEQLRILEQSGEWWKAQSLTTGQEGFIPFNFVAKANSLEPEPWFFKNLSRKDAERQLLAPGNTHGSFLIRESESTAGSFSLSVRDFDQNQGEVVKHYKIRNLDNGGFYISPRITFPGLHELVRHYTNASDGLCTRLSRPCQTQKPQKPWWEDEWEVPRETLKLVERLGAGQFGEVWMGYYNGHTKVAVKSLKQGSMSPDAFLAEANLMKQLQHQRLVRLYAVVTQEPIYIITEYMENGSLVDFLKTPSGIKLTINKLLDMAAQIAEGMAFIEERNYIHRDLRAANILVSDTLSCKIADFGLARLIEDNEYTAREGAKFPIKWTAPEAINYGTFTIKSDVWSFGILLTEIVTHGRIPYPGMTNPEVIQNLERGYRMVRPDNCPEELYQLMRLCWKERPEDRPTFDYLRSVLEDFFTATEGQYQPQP

[3] = molecular target: Calcium/calmodulin-dependent protein kinase type II subunit alpha (Homo sapiens) (UniProt Q9UQM7); assay: Inhibition of CaMK2a (unknown origin) at 0.45 uM relative to control
Sequence of Calcium/calmodulin-dependent protein kinase type II subunit alpha (Homo sapiens) (Q9UQM7 whole entry, the tested form may be a part): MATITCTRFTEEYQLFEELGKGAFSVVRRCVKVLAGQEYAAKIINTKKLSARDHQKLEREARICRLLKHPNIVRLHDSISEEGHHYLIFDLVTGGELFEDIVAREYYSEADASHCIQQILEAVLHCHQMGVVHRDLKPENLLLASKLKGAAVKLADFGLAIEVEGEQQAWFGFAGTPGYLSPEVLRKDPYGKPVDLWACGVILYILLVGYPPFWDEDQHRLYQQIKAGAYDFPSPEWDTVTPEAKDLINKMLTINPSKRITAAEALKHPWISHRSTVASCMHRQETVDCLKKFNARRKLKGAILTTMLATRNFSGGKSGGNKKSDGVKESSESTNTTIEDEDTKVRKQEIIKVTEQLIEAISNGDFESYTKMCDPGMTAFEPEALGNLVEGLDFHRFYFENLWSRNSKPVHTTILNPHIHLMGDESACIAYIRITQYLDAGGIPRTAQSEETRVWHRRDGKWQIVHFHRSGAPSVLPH

[4] = molecular target: Discoidin domain-containing receptor 2 (Homo sapiens) (UniProt Q16832); assay: Inhibition of DDR2 (unknown origin) at 0.45 uM relative to control
Sequence of Discoidin domain-containing receptor 2 (Homo sapiens) (Q16832 whole entry, the tested form may be a part): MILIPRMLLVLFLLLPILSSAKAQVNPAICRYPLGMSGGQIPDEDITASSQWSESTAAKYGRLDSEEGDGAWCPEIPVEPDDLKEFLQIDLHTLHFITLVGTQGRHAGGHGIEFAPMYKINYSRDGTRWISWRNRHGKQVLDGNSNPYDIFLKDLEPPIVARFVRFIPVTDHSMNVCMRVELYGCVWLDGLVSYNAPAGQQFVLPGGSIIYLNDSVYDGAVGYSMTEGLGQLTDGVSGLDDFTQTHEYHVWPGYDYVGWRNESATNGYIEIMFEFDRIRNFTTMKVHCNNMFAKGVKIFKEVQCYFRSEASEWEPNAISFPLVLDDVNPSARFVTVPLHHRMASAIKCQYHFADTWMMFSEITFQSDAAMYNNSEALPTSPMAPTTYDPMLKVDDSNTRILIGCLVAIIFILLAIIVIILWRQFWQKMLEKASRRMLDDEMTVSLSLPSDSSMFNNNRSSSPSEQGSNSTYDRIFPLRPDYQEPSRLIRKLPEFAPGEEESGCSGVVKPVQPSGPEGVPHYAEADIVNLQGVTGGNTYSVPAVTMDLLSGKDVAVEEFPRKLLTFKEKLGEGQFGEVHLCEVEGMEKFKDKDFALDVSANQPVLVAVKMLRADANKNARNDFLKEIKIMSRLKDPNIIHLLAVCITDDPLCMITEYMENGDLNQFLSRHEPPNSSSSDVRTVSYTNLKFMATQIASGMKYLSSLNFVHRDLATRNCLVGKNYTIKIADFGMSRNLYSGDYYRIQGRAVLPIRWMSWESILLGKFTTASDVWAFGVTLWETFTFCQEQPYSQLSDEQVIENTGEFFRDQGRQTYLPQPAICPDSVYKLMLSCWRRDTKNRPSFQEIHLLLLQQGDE

| Structure (SMILES) | inhibition [1] | inhibition [2] | inhibition [3] | inhibition [4] |
| --- | --- | --- | --- | --- |
| Cc1[nH]nc(C2CC2)c1-c1ccc2c(NC(=O)C3CC3)noc2c1 | 2% | 5.7% |  |  |
| Cc1n[nH]c(C)c1-c1ccc2c(NC(=O)c3ccc(N4CCN(C)CC4)cc3)n[nH]c2c1 |  |  | 2.7% | 66% |
